Tests used:
[1] = system: MV4-11 cells; assay: CellTiter-Blue cell viability, MV-4-11; format: cell-based; details: Homo sapiens, 72 hrs exposure
Procedure: (§1) Anti-cancer efficacy of exemplary compounds of this application was assessed in vitro in different cancer cell lines. Cell viability was examined following treatment at various concentration of inhibitor (0.097656-50 μM) using a cell Titer-Blue cell viability assay. 1×10^4 cells (NHF, MV4-11, K562 and MOLM-13 cells)/well were plated in 96-well assay plates in culture medium. All cells were grown in DMEM, IMDM and RPMI-1640 supplemented with 10% FBS. After 24 hrs, test compounds and vehicle controls were added to appropriate wells so the final volume was 100 μl in each well. The cells were cultured for the desired test exposure period (72 hrs) at 37° C. and 5% CO2. The assay plates were removed from 37° C. incubator and 20 μl/well of CellTiter-Blue® Reagent was added. The plates were incubated using standard cell culture conditions for 1-4 hours and the plates were shaken for 10 seconds and record fluorescence at 560/590 nm.

[2] = system: K562 cells; assay: CellTiter-Blue cell viability, K562; format: cell-based; details: Homo sapiens, 72 hrs exposure
Procedure: as §1

[3] = system: MOLM-13 cells; assay: CellTiter-Blue cell viability, MOLM-13; format: cell-based; details: Homo sapiens, 72 hrs exposure
Procedure: as §1

[4] = system: tubulin; assay: Tubulin polymerization assay; format: biochemical; details: for % Inhibition: Vmax normalized to tubulin only control; for % D.O.P.: degree of polymerization relative to tubulin control
Procedure: A96-well half-area clear flat-bottom microplate (Corning® #3697) was pre-heated in a plate reader (Cytation 3, BioTek) at 37° C. for 15 minutes prior to the start of each assay. Tubulin polymerization buffer (80 mM PIPES pH 6.9, 2 mM MgCl2, 0.5 mM EGTA, 15% glycerol, 1 mM GTP) was prepared from stock solutions and placed on ice. Inhibitors were prepared to M concentrations in buffer (80 mM PIPES pH 6.9, 2 mM MgCl2, 0.5 mM EGTA, 5% DMSO) from DMSO stock solutions. After the assay plate was pre-warmed, 10 μL of inhibitor or buffer control was added to selected wells. Every assay contained a tubulin only negative control for normalization of data, and a batabulin positive control. The assay plate was incubated at 37° C. for 3 minutes. During this time, a frozen aliquot of tubulin (10 mg/mL) in buffer (80 mM PIPES pH 6.9, 2 mM MgCl2, 0.5 mM EGTA) was defrosted by placing in a room temperature water bath. Once thawed, 200 μL of tubulin was mixed with 420 μL ice cold tubulin polymerization buffer (3 mg/mL tubulin in 80 mM PIPES, pH 6.9, 2 mM MgCl2, 0.5 mM EGTA, 1 mM GTP, 10.2% glycerol). To a 96-well plate on ice, aliquots of 100 μL tubulin was added to each well. From this plate, 90 μL of tubulin was immediately pipetted into all sample wells of the warmed assay plate using a multi-channel pipette. The assay plate was immediately put in the reader at 37° C. and shook for 5 s with orbital shaking at medium speed. The reader recorded the absorbance at 340 nm every 15 s for 30 min.
The resulting absorbance curves were normalized by subtracting each data point by the absorbance at time 0.
The largest change in absorbance over the assay time course was also recorded and related to the tubulin control as the % degree of polymerization (% D.O.P.).

SMILES	IC50 [1]	IC50 [2]	IC50 [3]	% Inhibition [4]	% D.O.P. [4]
CCOc1c(F)c(F)c(F)c(F)c1S(=O)(=O)N(C)C [Compound I-5, 2-ethoxy-3,4,5,6-tetrafluoro-N,N-dimethylbenzenesulfonamide]	–	> 10 µM	> 10000 nM	–	–
CC(C)S(=O)(=O)Oc1c(F)c(F)c(F)c(F)c1S(=O)(=O)N(C)C [Compound I-22, 2-(N,N-dimethylsulfamoyl)-3,4,5,6-tetrafluorophenyl propane-2-sulfonate]	–	> 10 µM	1000 to 10000 nM	–	–
CN(C)S(=O)(=O)c1c(F)c(F)c(F)c(F)c1OCC(F)(F)F [Compound I-10, 2,3,4,5-tetrafluoro-N,N-dimethyl-6-(2,2,2-trifluoroethoxy)benzenesulfonamide]	1000 to 10000 nM	> 10 µM	–	–	–
COc1ccc(NS(=O)(=O)c2c(F)c(F)c(F)c(F)c2OC(F)F)cc1F [Compound I-65, 2-(difluoromethoxy)-3,4,5,6-tetrafluoro-N-(3-fluoro-4-methoxyphenyl)benzenesulfonamide]	≤ 100 nM	–	100 to 1000 nM	C (>20%)	B (< 85%)
COc1ccc(NS(=O)(=O)c2c(O)c(F)c(F)c(F)c2F)cc1F [Compound I-63, 2,3,4,5-tetrafluoro-N-(3-fluoro-4-methoxyphenyl)-6-hydroxybenzenesulfonamide]	> 10000 nM	> 10 µM	–	A (<10%)	A (>85%)
CN(C)S(=O)(=O)c1c(O)c(F)c(F)c(F)c1F [Compound I-3, 2,3,4,5-tetrafluoro-6-hydroxy-N,N-dimethylbenzenesulfonamide]	> 10000 nM	> 10 µM	–	–	–

More lines, main results first:

IC50 [1]	IC50 [2]	IC50 [3]	SMILES	% Inhibition [4]	% D.O.P. [4]
> 10000 nM	> 10 µM	–	N#Cc1cccc(NS(=O)(=O)c2c(F)c(F)c(F)c(F)c2OC2CC2)c1 [Compound I-100, N-(3-cyanophenyl)-2-cyclopropoxy-3,4,5,6-tetrafluorobenzenesulfonamide]	–	–
> 10000 nM	> 10 µM	–	O=S(=O)(Nc1cccc(Cl)c1)c1c(F)c(F)c(F)c(F)c1OC1CC1 [Compound I-99, N-(3-chlorophenyl)-2-cyclopropoxy-3,4,5,6-tetrafluorobenzenesulfonamide]	–	–
100 to 1000 nM	> 10 µM	–	COC(=O)c1ccc(NS(=O)(=O)c2c(F)c(F)c(F)c(F)c2OC2CC2)cc1 [Compound I-102, methyl 4-((2-cyclopropoxy-3,4,5,6-tetrafluorophenyl)sulfonamido)benzoate]	–	–
≤ 100 nM	–	≤ 100 nM	COc1ccc(NS(=O)(=O)c2c(F)c(F)c(F)c(F)c2OC(F)(F)F)cc1F [Compound I-84, 2,3,4,5-tetrafluoro-N-(3-fluoro-4-methoxyphenyl)-6-(trifluoromethoxy)benzenesulfonamide]	C (>20%)	B (< 85%)
1000 to 10000 nM	> 10 µM	–	CN(C)S(=O)(=O)c1c(F)c(F)c(F)c(F)c1OCCF [Compound I-125, 2,3,4,5-tetrafluoro-6-(2-fluoroethoxy)-N,N-dimethylbenzenesulfonamide]	–	–
–	–	≤ 100 nM	CCOc1c(F)c(F)c(F)c(F)c1S(=O)(=O)Nc1ccc(OC)c(F)c1 [Compound I-85, 2-ethoxy-3,4,5,6-tetrafluoro-N-(3-fluoro-4-methoxyphenyl)benzenesulfonamide]	A (<10%)	A (>85%)
1000 to 10000 nM	1 to 10 µM	–	C#CCN(c1ccc(OC)c(F)c1)S(=O)(=O)c1c(F)c(F)c(F)c(F)c1OC1CC1 [Compound I-124, 2-cyclopropoxy-3,4,5,6-tetrafluoro-N-(3-fluoro-4-methoxyphenyl)-N-(prop-2-yn-1-yl)benzenesulfonamide]	–	–
100 to 1000 nM	–	1000 to 10000 nM	COc1ccc(NS(=O)(=O)c2c(F)c(F)c(F)c(F)c2OCCF)cc1F [Compound I-66, 2,3,4,5-tetrafluoro-N-(3-fluoro-4-methoxyphenyl)-6-(2-fluoroethoxy)benzenesulfonamide]	B (10-20%)	B (< 85%)
